Test results published in ChEMBL document CHEMBL1201862, “PubChem BioAssay data set” (2004).
The source made the active and inactive calls.

Tests used:
[1] = target: T1, Apoptotic protease-activating factor 1 (Homo sapiens, UniProt O14727); format: functional
T1 sequence (O14727 whole entry): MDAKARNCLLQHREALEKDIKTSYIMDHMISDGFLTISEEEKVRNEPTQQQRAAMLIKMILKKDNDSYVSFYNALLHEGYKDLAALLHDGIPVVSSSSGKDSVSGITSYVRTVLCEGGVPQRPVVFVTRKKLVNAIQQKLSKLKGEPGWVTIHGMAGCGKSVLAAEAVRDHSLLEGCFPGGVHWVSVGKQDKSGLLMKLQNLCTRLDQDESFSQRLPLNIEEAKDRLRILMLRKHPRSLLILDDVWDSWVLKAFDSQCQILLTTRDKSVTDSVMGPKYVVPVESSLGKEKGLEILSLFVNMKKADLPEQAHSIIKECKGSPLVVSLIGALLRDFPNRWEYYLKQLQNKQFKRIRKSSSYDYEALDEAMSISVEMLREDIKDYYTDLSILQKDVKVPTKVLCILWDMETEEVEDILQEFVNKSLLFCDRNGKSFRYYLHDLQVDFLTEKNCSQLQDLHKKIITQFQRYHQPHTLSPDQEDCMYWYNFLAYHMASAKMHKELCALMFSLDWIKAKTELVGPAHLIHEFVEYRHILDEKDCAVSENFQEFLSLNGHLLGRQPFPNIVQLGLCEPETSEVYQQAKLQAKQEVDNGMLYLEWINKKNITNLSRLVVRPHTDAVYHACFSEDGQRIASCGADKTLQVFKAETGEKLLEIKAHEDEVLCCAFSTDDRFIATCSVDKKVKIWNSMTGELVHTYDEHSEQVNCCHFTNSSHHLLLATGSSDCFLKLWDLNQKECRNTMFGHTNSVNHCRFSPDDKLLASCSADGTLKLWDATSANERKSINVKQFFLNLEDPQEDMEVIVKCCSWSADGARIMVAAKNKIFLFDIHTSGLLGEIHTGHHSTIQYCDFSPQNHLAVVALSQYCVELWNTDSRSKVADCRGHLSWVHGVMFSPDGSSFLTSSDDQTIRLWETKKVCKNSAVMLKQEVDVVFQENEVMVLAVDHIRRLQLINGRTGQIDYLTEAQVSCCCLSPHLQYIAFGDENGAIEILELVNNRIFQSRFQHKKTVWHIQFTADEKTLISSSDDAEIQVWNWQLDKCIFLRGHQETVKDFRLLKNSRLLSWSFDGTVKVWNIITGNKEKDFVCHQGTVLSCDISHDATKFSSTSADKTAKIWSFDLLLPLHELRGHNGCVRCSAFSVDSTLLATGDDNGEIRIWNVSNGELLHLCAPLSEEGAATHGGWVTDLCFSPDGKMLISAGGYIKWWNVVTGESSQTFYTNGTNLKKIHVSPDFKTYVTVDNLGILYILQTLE

[2] = ZM109 Env clade C HIV-1 fusion inhibitors, dose response, HeLa effector, CEM target cells, luciferase, cherry-pick (AID 652058); format: functional, cell-based
[3] = inhibitors of clade B AD8 Env fusion, dose response, cell-based, cherry-pick (AID 652062); format: functional;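 note: luciferase signal from cell-cell fusion driven by HIV-1 clade B AD8 Env; potency is for inhibitors of fusion seen as a drop in luminescence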
[4] = off-target signal loss in HeLa-CEM21 co-culture – HeLa F-luc CTL cells, cherry-picked, counter-screen for HIV-1 Env fusion inhibitor project, dose response (AID 652040); format: functional, cell-based;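 note: potency for signal decrease marking cytotoxic or nonspecific inhibition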
[5] = target: T2, Long-chain-fatty-acid--AMP ligase FadD28 (Mycobacterium tuberculosis, UniProt P9WQ59); assay: Fluorescence polarization aasay to screen for inhibitors that compete for the binding of FadD28 to a bisubstrate Measured in Biochemical System Using Plate Reader - 2147-01_Inhibitor_Dose_CherryPick_Activity.; format: functional, Mycobacterium tuberculosis H37Rv
T2 sequence (P9WQ59 whole entry): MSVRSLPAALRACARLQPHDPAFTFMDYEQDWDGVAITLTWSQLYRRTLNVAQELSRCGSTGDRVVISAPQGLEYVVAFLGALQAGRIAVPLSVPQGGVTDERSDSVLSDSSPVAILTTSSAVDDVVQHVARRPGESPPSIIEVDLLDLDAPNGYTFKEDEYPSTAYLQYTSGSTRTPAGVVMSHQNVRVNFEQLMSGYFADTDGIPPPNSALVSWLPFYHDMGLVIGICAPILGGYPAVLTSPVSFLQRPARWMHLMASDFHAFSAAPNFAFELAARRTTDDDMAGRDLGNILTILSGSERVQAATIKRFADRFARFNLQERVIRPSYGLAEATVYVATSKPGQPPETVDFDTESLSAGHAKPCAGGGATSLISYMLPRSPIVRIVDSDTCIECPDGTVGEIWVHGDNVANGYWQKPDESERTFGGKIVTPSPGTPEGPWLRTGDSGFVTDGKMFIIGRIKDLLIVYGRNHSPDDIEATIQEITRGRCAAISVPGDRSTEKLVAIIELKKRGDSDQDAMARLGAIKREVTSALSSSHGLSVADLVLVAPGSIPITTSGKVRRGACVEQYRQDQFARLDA

[6] = inhibitors of HIV Env-driven cell fusion, dose response, cherry-pick (AID 652057); format: functional, cell-based
[7] = target: T3, Sentrin-specific protease 8 (Homo sapiens, UniProt Q96LD8); format: functional
T3 sequence (Q96LD8 whole entry): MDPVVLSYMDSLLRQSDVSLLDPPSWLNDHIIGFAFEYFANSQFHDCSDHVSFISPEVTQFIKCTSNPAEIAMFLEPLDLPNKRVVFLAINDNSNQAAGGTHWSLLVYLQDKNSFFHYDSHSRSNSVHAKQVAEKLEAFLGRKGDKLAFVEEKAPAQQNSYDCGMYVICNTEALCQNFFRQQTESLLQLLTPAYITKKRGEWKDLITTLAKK

[8] = target: T3, Sentrin-specific protease 8; format: functional; remark: listed apart in the source
P388/ADR = assay: cells; format: functional; conditions: Mus musculus
SN12K1 = assay: cells; format: functional; conditions: Homo sapiens
[9] = intracellular Trypanosoma cruzi inhibitors in host cells – cell-based, plate reader, cherry-pick samples, set 3, dose response (AID 651818); format: functional;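 note: compounds incubated with infected cells for about four days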
[10] = miR-122 activators in hepatoma reporter cells, dose response, cell-based, Huh7 psiCHECK-miR122, Renilla luciferase, cherry-picked (AID 651956); format: functional;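 note: huh7 hepatoma cells stably carrying a psiCHECK-2 miR-122 sensor plasmid; renilla luciferase signal reporting endogenous miR-122 activity after 48 h compound exposure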
[11] = target: T4, Replicative DNA helicase DnaB (Mycobacterium tuberculosis, UniProt P9WMR3); assay: DnaB intein splicing inhibitors, dose response, biochemical, cell-free fluorescence (AID 449749); format: functional
T4 sequence (P9WMR3 whole entry): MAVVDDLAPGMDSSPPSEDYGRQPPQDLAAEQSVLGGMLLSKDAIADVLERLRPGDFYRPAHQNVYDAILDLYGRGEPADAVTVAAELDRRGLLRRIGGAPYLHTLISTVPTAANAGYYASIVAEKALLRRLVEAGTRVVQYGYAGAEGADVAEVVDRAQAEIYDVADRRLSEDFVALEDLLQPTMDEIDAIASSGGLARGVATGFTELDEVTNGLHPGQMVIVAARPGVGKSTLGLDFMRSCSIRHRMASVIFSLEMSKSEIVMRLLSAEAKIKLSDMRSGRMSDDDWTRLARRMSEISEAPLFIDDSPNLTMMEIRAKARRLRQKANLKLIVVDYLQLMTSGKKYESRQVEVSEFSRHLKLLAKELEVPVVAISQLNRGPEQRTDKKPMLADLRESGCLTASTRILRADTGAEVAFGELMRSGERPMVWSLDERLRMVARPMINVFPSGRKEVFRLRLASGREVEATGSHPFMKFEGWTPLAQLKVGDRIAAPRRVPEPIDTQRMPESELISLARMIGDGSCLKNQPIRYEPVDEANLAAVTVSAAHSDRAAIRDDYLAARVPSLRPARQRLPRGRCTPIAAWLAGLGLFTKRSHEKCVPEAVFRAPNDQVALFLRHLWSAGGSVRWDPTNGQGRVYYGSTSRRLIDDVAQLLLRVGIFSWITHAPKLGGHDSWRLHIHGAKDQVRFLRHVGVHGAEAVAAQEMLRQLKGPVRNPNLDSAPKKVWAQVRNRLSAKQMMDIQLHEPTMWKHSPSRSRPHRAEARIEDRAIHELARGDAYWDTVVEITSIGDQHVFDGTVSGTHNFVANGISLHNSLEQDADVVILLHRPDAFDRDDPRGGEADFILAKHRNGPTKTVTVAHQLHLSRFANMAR

Protein RecA = target: T5, Protein RecA (Mycobacterium tuberculosis, UniProt P9WHJ3); assay: Fluorescence Cell-Free Homogeneous Dose Retest to Identify Inhibitors of RecA-Intein Splicing Activity. [Related pubchem assays (depositor defined):AID2097, AID2223, AID489010, AID492950]; format: functional
T5 sequence (P9WHJ3 whole entry): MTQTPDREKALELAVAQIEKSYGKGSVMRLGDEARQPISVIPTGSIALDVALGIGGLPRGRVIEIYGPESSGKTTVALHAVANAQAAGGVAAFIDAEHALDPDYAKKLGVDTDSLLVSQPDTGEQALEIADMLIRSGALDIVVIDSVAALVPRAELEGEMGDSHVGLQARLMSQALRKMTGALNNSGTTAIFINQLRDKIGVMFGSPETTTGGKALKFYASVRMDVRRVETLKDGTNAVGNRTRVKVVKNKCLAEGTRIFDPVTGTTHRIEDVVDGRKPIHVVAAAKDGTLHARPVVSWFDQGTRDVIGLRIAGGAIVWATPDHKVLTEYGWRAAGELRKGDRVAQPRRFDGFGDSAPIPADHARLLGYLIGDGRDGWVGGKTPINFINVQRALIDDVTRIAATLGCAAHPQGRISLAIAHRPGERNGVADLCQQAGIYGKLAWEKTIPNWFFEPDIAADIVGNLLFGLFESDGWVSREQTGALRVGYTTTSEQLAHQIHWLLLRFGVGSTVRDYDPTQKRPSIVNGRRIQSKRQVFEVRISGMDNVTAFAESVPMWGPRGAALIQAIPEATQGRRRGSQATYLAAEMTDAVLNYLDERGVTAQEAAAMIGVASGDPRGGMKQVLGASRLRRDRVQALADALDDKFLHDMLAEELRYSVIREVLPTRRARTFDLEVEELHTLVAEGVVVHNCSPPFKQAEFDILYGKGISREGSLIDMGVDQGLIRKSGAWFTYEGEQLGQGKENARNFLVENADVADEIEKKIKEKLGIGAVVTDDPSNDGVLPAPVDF

[12] = Luminescence Cell-Based Dose Retest to Confirm Inhibitors of Cancer Stem Cells. [Related pubchem assays (depositor defined):AID2717, AID2721]; format: functional; conditions: Homo sapiens

With `O=C(CCCN1CCc2[nH]c3ccc(F)cc3c2C1)c1ccc(F)cc1` as the compound, how does the IC50 [1] read?
Its IC50 is 7.9 µM (active).

For `CC(C)NS(=O)(=O)c1ccc(OCC(=O)N2CCN(Cc3ccc4c(c3)OCO4)CC2)c(Cl)c1`, which AC50 [2] is on record?
The AC50 was 1.86 µM (active).

And the AC50 [3]?
Its AC50 is 13.4 µM (active).

And the AC50 [4]?
Its AC50 is 29.7 µM (active).

Which AC50 [5] does the source give for `CCOc1cc(/C=C2/NC(=O)N(CC(=O)Nc3cccc(C)c3)C2=O)ccc1O` here?
The AC50 was 51.7 µM (active).

With `C/C(NNC(=O)c1ccccc1O)=C1/C(=O)NC(=O)N(C2CCCCC2)C1=O` as the compound, how does the AC50 [5] read?
Its AC50 is 24.7 µM (active).

With `Cc1ccc(NC(=O)CN2C(=O)S/C(=C\c3cc(C)n(-c4ccc(C(=O)O)cc4)c3C)C2=O)cc1` as the compound, how does the AC50 [5] read?
The AC50 was 2.97 µM (active).

Which IC50 [1] does the source give for `O=C(NCC(c1ccco1)N1CCCC1)c1cccc(S(=O)(=O)Nc2ccc(Br)cc2)c1` (stereo not given) here?
Its IC50 is 45.8 µM (active).

Which results are given for `O=C(C[C@@H]1C/C=C/CC[C@@H](Cc2ccc(F)cc2)C(=O)O[C@H](c2ccccc2)CNC1=O)NCCO`?
AC50 [2]: 5.4 µM (active); AC50 [6]: 5.18 µM (active); AC50 [3]: 6.44 µM (active); AC50 [4]: 6.16 µM (active)

What does the source list for `N#CC1(CCCN2CCCCC2)c2ccccc2CCc2ccccc21`?
IC50 [7]: 43.4 µM (active); IC50 [8]: 35.4 µM (active)

What does the source list for `NC(=O)C#CC(N)=O`?
GI50 (P388/ADR): 1.02 µM (active); GI50 (SN12K1): 12.9 µM (inactive)

With `COc1ccc(NC(=O)Nc2ccc3c(c2)C(=O)N([C@H](C)CO)C[C@H](C)[C@@H](CN(C)Cc2ccc(Cl)c(Cl)c2)OCCCC[C@@H](C)O3)cc1` as the compound, how does the AC50 [9] read?
Its AC50 is 4.1 µM (active).

With `C[C@@H]1CCCCO[C@@H](CN(C)C(=O)Nc2ccc(C(F)(F)F)cc2)[C@@H](C)CN([C@H](C)CO)C(=O)c2cc(NC(=O)Nc3ccccc3)ccc2O1` as the compound, how does the AC50 [9] read?
The AC50 was 3.75 µM (active).

For `COCC(=O)N(C)C[C@H]1Oc2cc(C#Cc3cccnc3)ccc2S(=O)(=O)N([C@@H](C)CO)C[C@@H]1C`, which AC50 [10] is on record?
Its AC50 is 32.8 µM (active).

With `Cc1noc(C)c1S(=O)(=O)Nc1ccc2c(c1)CC(=O)N([C@H](C)CO)C[C@H](C)[C@H](CN(C)Cc1ccc(C(=O)Nc3ccccc3N)cc1)O2` as the compound, how does the AC50 [9] read?
The AC50 was 2.36 µM (active).

With `C[C@@H]1CN([C@H](C)CO)C(=O)Cc2cc(NC(=O)Nc3cccc4ccccc34)ccc2O[C@@H]1CN(C)Cc1ccc2c(c1)OCO2` as the compound, how does the AC50 [9] read?
Its AC50 is 2.61 µM (active).

With `O=S1(=O)c2c(cccc2N2CCCCC2)O[C@H](COCc2ccccc2)CN1C1CC1` as the compound, how does the AC50 [2] read?
The AC50 was 4.61 µM (active).

And the AC50 [6]?
Its AC50 is 6.53 µM (active).

And the AC50 [3]?
Its AC50 is 22.4 µM (active).

What about the AC50 [4] of the same compound?
Its AC50 is 16.3 µM (active).

What does the source list for `COc1ccc(-c2cc(=O)n(-c3ccc([N+](=O)[O-])cc3)[nH]2)cc1`?
AC50 [11]: 2.75 µM (active); IC50 [7]: 25.2 µM (active); EC50 (Protein RecA): 2.42 µM (active); IC50 [8]: 17.6 µM (active); AC50 [12]: 10 µM (active)
